In US12065427B2, “Heterocyclic compounds capable of activating STING” (BOEHRINGER INGELHEIM INTERNATIONAL GMBH, priority 2021, dated 2024):
Converted amounts (≈) assume the structure as drawn.

Key:
[1] = test system: Human STING (hSTING, residues 155-341); assay: Interaction with hSTING as determined by Differential Scanning Fluorimetry (DSF); assay type: binding; conditions: 100 μM test compounds, 5 μM target protein
Method in brief: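 Thermal shift of hSTING (residues 155-341, 5 μM) with test compounds at 100 μM in 20 mM Tris, 150 mM NaCl, pH 7.5, using 5× SYPRO Orange. Ramped 25 to 95 °C at 0.5 °C per cycle (15 s/cycle) by real-time PCR fluorescence. Tm from duplicate melting curves, averaged.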

[2] = Solubility measurements (HTS) at pH 6.8; assay type: physicochemical; conditions: kinetic from dmso stock; aqueous McIlvaine buffer pH 6.8, 24 h at room temperature, from 10 mM DMSO stock; read-out: Soblubility
Description: Aqueous solubilities were determined from 10 mM stock solutions of the compounds in DMSO diluted to a final concentration of 250 μM with aqueous McIlvaine buffer at pH 6.8, or with acetonitrile/water (1:1) as a reference. Samples were shaken for 24 h at room temperature in 96-well plates (Whatman Uniplate® 96 wells, 750 μL, polypropylene, round bottom). The plate was then centrifuged at 3,000 rpm for 2 min. 250 μL of each sample were transferred to a Millipore MultiScreenHTS filter plate with a polycarbonate membrane, pore size 0.45 μm. Filtrates were collected by centrifugation at 3,000 rpm for 2 min. The dissolved concentrations were determined by UPLC/UV (Ultra-Performance Liquid Chromatography/ultraviolet) on a Waters ACQUITY UPLC® SQD system equipped with a Waters ACQUITY UPLC® BEH 2.1×50 mm C18 column, particle size 1.7 μm, using a short gradient with water/0.1% formic acid as solvent A and acetonitrile/0.1% formic acid as solvent B (5 to 95% B with 1.7 min total cycle time). Compounds signals were measured with a photodiode array UV detector operated at 254 nm. Solubilities were determined with a one point calibration by comparing peak areas relative to the reference standard using Waters Empower software.

STING HAQ-variant = molecular target: T1, STING HAQ-variant (Homo sapiens, UniProt Q86WV6, G230A/H232R/R293Q/R71H); assay: IRF-inducible SEAP reporter assay in THP1-Blue ISG cells, STING HAQ-variant; assay type: cell-based; conditions: STING HAQ-variant (parental or re-introduced), 24 hours incubation
T1 construct: parental THP1-Blue™ ISG cell lines (which express endogenously HAQ); host or cells: THP1-Blue ISG (parental, endogenous HAQ) or STING-KO clone re-transduced with HAQ (MSCV-ires-GFP-Blasti)
Method in brief: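 THP1-Blue ISG cells expressing STING HAQ, either endogenously (parental) or re-introduced after CRISPR knockout, were seeded at 10000 cells/well. They received 8-point compound dilutions (0.5% DMSO final) for 24 hours at 37° C. IRF-driven SEAP was read with Quanti-Blue at OD 620 nm after 30 minutes, and EC50 came from four-parameter fits.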

in vitro = conditions: human, Caco-2, pH 7.4
STING AQ-variant = molecular target: T2, STING AQ-variant (Homo sapiens, UniProt Q86WV6, G230A/H232R/R293Q); assay: IRF-inducible SEAP reporter assay in THP1-Blue ISG cells, STING AQ-variant; assay type: cell-based; conditions: 24 hours incubation
T2 construct: expressed in transfected cells; host or cells: THP1-Blue ISG hSTING KO clone, retroviral MSCV-ires-GFP-Blasti
Description: In Vitro Cytokine Induction Measured Via Activation of an Interferon Regulatory Factor Inducible Reporter Gene
Activation of the STING protein expressed in cell lines results in an increase of interferon production. By the stable integration of an interferon regulatory factor (IRF)-inducible SEAP gene (secreted embryonic alkaline phosphatase) reporter construct the functional interferon signaling pathway can be monitored. Using Invivogen's THP1-Blue™ ISG colorimetric enzyme assay and a suitable optical density (OD) reader the activity of SEAP can be detected and quantified. This technique could be used to characterize pharmacological modification of the STING pathway.
Several single nucleotide polymorphisms have been identified in the human STING gene. To determine the activity of the above described compounds, THP1-Blue™ ISG reporter cell lines expressing the different human STING variants have been generated. To do so, the endogenous human STING was first deleted using the CRISPR/CAS9 system: THP1-Blue ISG cells were electroporated with ALL-IN-ONE CRISPR plasmids targeting the STING gene (purchased from Sigma encoding the gRNA and GFP as a reporter gene for successful transduction). GFP positive cells then were sorted 24 h post transfection and expanded. Cells were then dispersed in semisolid methocel medium to allow single cell clone isolations. Clones were then screened for cGAMP responsiveness using the Quanti-Blue™ reporter assay. Non-responsive clones were subsequently analysed for STING loss by western blotting and sequencing of the STING locus.
For the overexpression of the human STING variants, a confirmed THP1-Blue™ ISG hSTING KO clone was transduced with individual retroviral plasmids (MSCV-ires-GFP-Blasti) encoding the allelic variants of hSTING (WT (H232R), HAQ, R232H, AQ and R293Q). Transduced cells were sorted for different levels of GFP fluorescence and STING allele expression was analysed by western blot.
Measurements of SEAP activity were performed in THP1-Blue™ ISG cells stably expressing the different human STING isoforms and the IRF-inducible SEAP reporter construct. Cells were cultivated in RPMI1640 medium with 10% fetal calf serum, 50 μg/ml Penicillin-Streptomycin, 100 μg/ml Zeocin, and 100 μg/ml Normocin in a 37°, 95% humidity and 5% CO2 incubator.
In preparation for the assay, the cells were distributed into the assay plates with a density of 10000 cells/15 μL per well. Compounds were prepared by an 8 point serial dilution in 50% aqueous DMSO and a final dilution step into medium to ensure a final DMSO concentration of 0.5% in the assay. 5 μL of diluted compounds were added to the plates, followed by a 24 hours incubation at 37° C.
At the day of the assay, 75 μl per well of Quanti-Blue™ reagent was added to all wells of the plate and the plate was incubated another 30 minutes at 37° C. The OD at 620 nm was measured on the EnVision reader (PerkinElmer).
EC50 values and Hill slopes were derived from 8-point four parametric non-linear curve fittings with the Megalab software (Boehringer Ingelheim) using the OD at 620 nm.
Data of EC50 values can be found in tables 2a-2e.
Data of EC50 values on STING AQ-variant can be found in table 2e: […]

STING H232R-variant = molecular target: T3, STING H232R-variant (Homo sapiens, UniProt Q86WV6, H232R); assay: IRF-inducible SEAP reporter assay in THP1-Blue ISG cells, STING H232R-variant; assay type: cell-based; conditions: STING H232R-variant (WT), 24 hours incubation
T3 construct: expressed in transfected cells; host or cells: THP1-Blue ISG hSTING KO clone, retroviral MSCV-ires-GFP-Blasti
Method in brief: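 THP1-Blue ISG cells with endogenous STING deleted by CRISPR and retrovirally re-expressing human STING H232R; 8-point compound dilutions, 0.5% DMSO final, 24 h at 37 °C. SEAP read by Quanti-Blue, 30 min, OD 620 nm; EC50 and Hill slope from four-parameter fit.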

STING R232H-variant = molecular target: T4, STING R232H-variant (Homo sapiens, UniProt Q86WV6); assay: IRF-inducible SEAP reporter assay in THP1-Blue ISG cells, STING R232H-variant; assay type: cell-based; conditions: 24 hours incubation
T4 construct: expressed in transfected cells; host or cells: THP1-Blue ISG hSTING KO clone, retroviral MSCV-ires-GFP-Blasti
Method in brief: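 THP1-Blue ISG cells, endogenous STING knocked out by CRISPR and re-expressing hSTING R232H, with IRF-inducible SEAP reporter. Treated 24 h at 37 °C with 8-point compound dilutions (0.5% DMSO final); SEAP read by Quanti-Blue OD 620 nm after 30 min. EC50 from four-parameter fit.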

STING R293Q-variant = molecular target: T5, STING R293Q-variant (Homo sapiens, UniProt Q86WV6, H232R/R293Q); assay: IRF-inducible SEAP reporter assay in THP1-Blue ISG cells, STING R293Q-variant; assay type: cell-based; conditions: 24 hours incubation
T5 construct: expressed in transfected cells; host or cells: THP1-Blue ISG hSTING KO clone, retroviral MSCV-ires-GFP-Blasti
Method in brief: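 THP1-Blue ISG cells with endogenous STING knocked out (CRISPR) and retrovirally re-expressing human STING R293Q; 10000 cells/well, compound 24 h at 37 °C, 0.5% DMSO final. SEAP read by Quanti-Blue (30 min, OD 620 nm); EC50 and Hill slope from 8-point four-parameter fit.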

T5 sequence (Q86WV6 whole entry H232R/R293Q): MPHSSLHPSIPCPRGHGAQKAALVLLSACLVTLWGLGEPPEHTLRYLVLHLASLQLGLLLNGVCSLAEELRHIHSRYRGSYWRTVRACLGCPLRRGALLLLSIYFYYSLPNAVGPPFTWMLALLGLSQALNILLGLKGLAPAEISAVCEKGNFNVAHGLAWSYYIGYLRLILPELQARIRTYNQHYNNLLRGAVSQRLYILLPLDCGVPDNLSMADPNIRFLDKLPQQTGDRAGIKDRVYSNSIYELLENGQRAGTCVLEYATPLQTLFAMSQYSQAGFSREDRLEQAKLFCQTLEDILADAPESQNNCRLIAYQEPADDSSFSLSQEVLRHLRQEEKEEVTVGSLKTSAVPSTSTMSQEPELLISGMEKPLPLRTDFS
T2 sequence (Q86WV6 whole entry G230A/H232R/R293Q): as the sequence (Q86WV6 whole entry H232R/R293Q) above, with G230A counted along it
T4 sequence (Q86WV6 whole entry, stated change not applied): as the sequence (Q86WV6 whole entry H232R/R293Q) above, with R232H, Q293R counted along it
T1 sequence (Q86WV6 whole entry R71H/G230A/H232R/R293Q): as the sequence (Q86WV6 whole entry H232R/R293Q) above, with R71H, G230A counted along it
T3 sequence (Q86WV6 whole entry H232R): as the sequence (Q86WV6 whole entry H232R/R293Q) above, with Q293R counted along it

solubility kinetic at 24 h [2] [µg/mL] | EC50 (STING HAQ-variant) [µM] | Papp A→B at 10 μM (in vitro) [×10⁻⁶ cm/s] | efflux ratio at 10 μM (in vitro) | EC50 (STING AQ-variant) [µM] | EC50 (STING H232R-variant) [µM] | EC50 (STING R232H-variant) [µM] | EC50 (STING R293Q-variant) [µM] | SMILES | thermal shift (ΔTm) [1] [K]
51 (≈ 104 µM) | 6.5 | – | – | – | – | – | – | Cc1cccc2c(-c3cccc4nn(C)cc34)nn(-c3ccc(N4CCC(c5nn[nH]n5)CC4)nc3)c12 [Example #19, 2′,7-dimethyl-1-{6-[4-(2H-1,2,3,4-tetrazol-5-yl)piperi-din-1-yl]pyridin-3-yl}-1H,2′H-3,4′-biindazole] | 21
87 (≈ 160 µM) | 0.08 | – | – | – | – | – | – | Cc1c(-c2cnn(C)c2)ccc2c(-c3cccc4nn(C)cc34)nn(-c3ccc(N4CC5C(C4)C5C(=O)O)nc3)c12 (stereo not drawn) [Example #28, 3-{5-[2′,7-dimethyl-6-(1-methyl-1H-pyrazol-4-yl)-1H,2′H-[3,4′-biindazol]-1-yl]pyridin-2-yl}-3-azabicy-clo[3.1.0]hexane-6-carbox-ylic acid] | 27
75 (≈ 148 µM) | 4.9 | 19 | 0.6 | – | – | – | – | Cc1cccc2c(-c3cccc4cnc(N(C)C)cc34)nn(-c3ccc(N4CCC(C(=O)O)CC4)nc3)c12 [Example #63, 1-(5-{3-[3-(dimethyla-mino)isoquinolin-5-yl]-7-methyl-1H-indazol-1-yl}pyridin-2-yl)piperidine-4-carboxylic acid] | 19
74 (≈ 154 µM) | 16.1 | 18 | 1.2 | – | – | – | – | Cc1cc(C)c2c(c1)c(-c1cccc3nn(C)cc13)nn2-c1ccc(N2CCC(C(=O)O)CC2)nc1 [Example #70, 1-(5-{2′,5,7-trimethyl-1H,2′H-[3,4′-biindazol]-1-yl}pyridin-2-yl)piperidine-4-carboxylic acid] | –
– | 3 | 21 | 0.6 | 2.1 | 0.4 | 0.8 | 2.2 | Cc1cccc2c(-c3cccc4nn(C)cc34)nn(-c3ccc(N4CCC(NS(C)(=O)=O)CC4)nc3)c12 [compound 56, N-[1-(5-{2′,7-dimethyl-1H,2′H-[3,4′-biindazol]-1-yl}pyridin-2-yl)piperidin-4-yl]methanesulfonamide] | 20
84 (≈ 170 µM) | 6.8 | – | – | – | – | – | – | Cc1cccc2c(-c3cccc4nn(C)cc34)nn(-c3ccc(N4CCN(CC(=O)O)C(=O)C4)nc3)c12 [compound 58, 2-[4-(5-{2′,7-dimethyl-1H,2′H-[3,4′-biindazol]-1-yl}pyridin-2-yl)-2-oxopi-perazin-1-yl]acetic acid] | 23
– | 1.6 | 16 | 1 | 0.8 | 0.7 | 0.7 | 0.8 | Cc1cc2c(-c3nn(-c4ccc(N5CC6C(C5)C6C(=O)O)nc4)c4c(C)cccc34)cccn2n1 (stereo not drawn) [compound 68, 3-[5-(7-methyl-3-{2-methylpyrazolo[1,5-a]pyr-idin-4-yl}-1H-indazol-1-yl)pyridin-2-yl]-3-azabicy-clo[3.1.0]hexane-6-car-boxylic acid] | 24
67 (≈ 135 µM) | 0.6 | – | – | – | – | – | – | Cc1c(CO)ccc2c(-c3cccc4nn(C)cc34)nn(-c3ccc(N4CC5C(C4)C5C(=O)O)nc3)c12 (stereo not drawn) [compound 71, 3-{5-[6-(hydroxymethyl)-2′,7-dimethyl-1H,2′H-[3,4′-biindazol]-1-yl]pyri-din-2-yl}-3-azabicy-clo[3.1.0]hexane-6-car-boxylic acid] | 29
– | 0.1 | 9 | 4.8 | 0.1 | 0.03 | 0.05 | 0.1 | Cc1c(CO)ccc2c(-c3cccc4nn(C)cc34)nn(-c3ccc(N4CCC(S(C)(=O)=O)CC4)nc3)c12 [compound 75, {1-[6-(4-methanesul-fonylpiperidin-1-yl)pyridin-3-yl]-2′,7-dimethyl-1H,2′H-[3,4′-biindazol]-6-yl}meth-anol] | 26
